# Molecular target: T1, Receptor-interacting serine/threonine-protein kinase 1 (Homo sapiens, UniProt Q13546)
# T1 sequence (Q13546 whole entry): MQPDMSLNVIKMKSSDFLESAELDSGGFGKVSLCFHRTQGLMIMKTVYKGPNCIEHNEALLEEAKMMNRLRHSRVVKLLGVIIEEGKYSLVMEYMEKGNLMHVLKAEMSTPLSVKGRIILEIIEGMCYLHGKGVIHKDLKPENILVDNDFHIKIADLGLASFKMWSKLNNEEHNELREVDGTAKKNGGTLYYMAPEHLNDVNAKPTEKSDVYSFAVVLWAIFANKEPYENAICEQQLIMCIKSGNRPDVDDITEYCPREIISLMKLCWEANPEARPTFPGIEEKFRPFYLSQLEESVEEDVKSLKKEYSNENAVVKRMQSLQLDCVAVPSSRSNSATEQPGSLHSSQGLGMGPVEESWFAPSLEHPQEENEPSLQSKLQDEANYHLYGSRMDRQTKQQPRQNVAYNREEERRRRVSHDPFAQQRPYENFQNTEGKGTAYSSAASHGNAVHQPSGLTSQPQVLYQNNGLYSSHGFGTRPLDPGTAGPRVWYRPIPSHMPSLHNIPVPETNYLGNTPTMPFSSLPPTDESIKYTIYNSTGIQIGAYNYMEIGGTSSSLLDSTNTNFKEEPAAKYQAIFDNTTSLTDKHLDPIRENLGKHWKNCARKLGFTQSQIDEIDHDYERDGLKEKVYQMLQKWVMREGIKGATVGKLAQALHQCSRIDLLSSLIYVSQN
# Test: Inhibition of recombinant N-terminal GST-tagged human RIPK1 (1 to 327 residues) expressed in baculovirus infected Sf9 insect cells preincubated for 40 mins followed by substrate addition and measured after 60 mins by ADP-glo luminescence assay
row,SMILES,EC50 [nM]
1,O=C(N1CC(Oc2ccccc2F)C1)N1N=CC[C@H]1c1cc(F)cc(F)c1,3.1
2,C[C@H]1[C@@H](Oc2ccc(F)cc2)CN1C(=O)N1N=CC[C@H]1c1ccc(Cl)cc1,< 5.1
3,O=C(N1CC(Sc2ccc(Br)cc2)C1)N1N=CC[C@H]1c1cc(F)cc(F)c1,5.9
4,O=C(c1ccccc1)C1CN(C(=O)N2N=CC[C@H]2c2cc(F)cc(F)c2)C1,5.6
5,O=C(N1CC(Oc2ccccc2)C1)N1N=CC[C@H]1c1cc(F)cc(F)c1,3.8
